From ChEMBL document CHEMBL1147704, “Design and synthesis of 7H-pyrrolo[2,3-d]pyrimidines as focal adhesion kinase inhibitors. Part 2” (Bioorg Med Chem Lett, 2006)
pIC50: −log10 of the molar value.

Biological target: Focal adhesion kinase 1 (Homo sapiens, UniProt Q05397)
Sequence (Q05397 whole entry): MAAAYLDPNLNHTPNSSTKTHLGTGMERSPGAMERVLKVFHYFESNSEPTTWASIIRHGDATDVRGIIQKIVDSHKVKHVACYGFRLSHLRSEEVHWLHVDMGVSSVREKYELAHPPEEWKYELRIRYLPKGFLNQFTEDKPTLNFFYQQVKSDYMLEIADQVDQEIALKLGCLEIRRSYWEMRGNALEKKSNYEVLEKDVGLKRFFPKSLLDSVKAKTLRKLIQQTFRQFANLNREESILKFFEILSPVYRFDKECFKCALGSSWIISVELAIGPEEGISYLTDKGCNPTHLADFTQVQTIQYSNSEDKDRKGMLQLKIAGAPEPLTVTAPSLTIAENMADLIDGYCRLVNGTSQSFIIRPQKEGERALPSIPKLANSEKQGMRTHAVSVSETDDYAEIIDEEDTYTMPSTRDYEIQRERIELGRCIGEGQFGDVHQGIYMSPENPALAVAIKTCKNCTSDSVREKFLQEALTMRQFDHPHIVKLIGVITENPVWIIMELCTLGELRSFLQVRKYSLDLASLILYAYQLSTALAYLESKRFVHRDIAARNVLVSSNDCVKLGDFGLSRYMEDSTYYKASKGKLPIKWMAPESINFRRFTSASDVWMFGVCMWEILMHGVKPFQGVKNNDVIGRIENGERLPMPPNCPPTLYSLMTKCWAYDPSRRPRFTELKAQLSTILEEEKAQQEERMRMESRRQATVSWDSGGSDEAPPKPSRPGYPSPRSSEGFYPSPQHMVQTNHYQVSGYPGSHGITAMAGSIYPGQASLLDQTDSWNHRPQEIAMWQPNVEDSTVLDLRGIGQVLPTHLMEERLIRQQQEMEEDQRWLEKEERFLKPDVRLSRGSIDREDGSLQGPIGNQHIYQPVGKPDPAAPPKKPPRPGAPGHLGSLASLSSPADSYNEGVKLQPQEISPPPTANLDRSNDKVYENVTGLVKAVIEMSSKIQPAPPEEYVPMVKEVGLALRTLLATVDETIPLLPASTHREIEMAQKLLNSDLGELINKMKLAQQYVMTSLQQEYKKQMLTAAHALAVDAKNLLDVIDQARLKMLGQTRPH

With `COc1cc(Nc2ncc3ccn(-c4cccc(CCC(=O)O)n4)c3n2)cc(OC)c1OC` the pIC50 was 8.40.
Work on `COc1cc(Nc2ncc3ccn(-c4ccccn4)c3n2)cc(OC)c1OC` yielded a pIC50 of 6.67.
